Reference: patent US20250066339A1, “HETEROCYCLE-SUBSTITUTED AROMATIC COMPOUND, METHOD FOR PREPARING SAME, HERBICIDAL COMPOSITION, AND USE THEREOF” (QINGDAO KINGAGROOT CHEMICAL COMPOUND CO., LTD., priority 2022, published 2025)

How the values were obtained:
Experiment in all cases: Post-emergence test on weeds
Format in all cases: in vivo
Design in all cases: key: Level 10: completely dead; Level 9: growth control rate greater than or equal to 90% and less than 100%; Level 8: growth control rate greater than or equal to 80% and less than 90%; Level 7: growth control rate greater than or equal to 70% and less than 80%; Level 6: growth control rate greater than or equal to 60% and less than 70%; Level 5: growth control rate greater than or equal to 50% and less than 60%; Level 4: growth control rate greater than or equal to 40% and less than 50%; Level 3: growth control rate greater than or equal to 30% and less than 40%; Level 2: growth control rate greater than or equal to 20% and less than 30%; Level 1: growth control rate less than 20%; Level 0: no effect
Conditions in all cases: 3 weeks after application, fresh weight control rate
Echinochloa crus-galli = system: Echinochloa crus-galli
Text: (§1) The activity level criteria for plant damage (i.e., growth control rate) are as follows: • Level 10: completely dead; • Level 9: growth control rate greater than or equal to 90% and less than 100%; • Level 8: growth control rate greater than or equal to 80% and less than 90%; • Level 7: growth control rate greater than or equal to 70% and less than 80%; • Level 6: growth control rate greater than or equal to 60% and less than 70%; • Level 5: growth control rate greater than or equal to 50% and less than 60%; • Level 4: growth control rate greater than or equal to 40% and less than 50%; • Level 3: growth control rate greater than or equal to 30% and less than 40%; • Level 2: growth control rate greater than or equal to 20% and less than 30%; • Level 1: growth control rate less than 20%; • Level 0: no effect.
(§2) The above growth control rates are fresh weight control rates.
(§3) Monocotyledonous and dicotyledonous weed seeds (Descurainia sophia, Capsella bursa-pastoris, Abutilon theophrasti, Galium spurium, Stellaria media, Lithospermum arvense, Rorippa indica, Alopecurus aequalis, Alopecurus japonicus, Eleusine indica, Beckmannia syzigachne, Sclerochloa dura, Erigeron canadensis, Phleum paniculatum, Veronica polita, Bromus japonicus, Aegilops tauschii, Phalaris arundinacea, Amaranthus retroflexus, Chenopodium, Commelina communis, Cichorium endivia, Convolvulus arvensis, Cirsium arvense, Solanum nigrum, Acalypha australis, Digitaria sanguinalis, Echinochloa crus-galli, Setaria viridis, Setaria pumila, Leptochloa chinensis, Monochoria vaginalis, Sagittaria trifolia, Schoenoplectiella juncoides, Cyperus rotundus, Cyperus iria, Cyperus difformis, Fimbristylis, Portulaca oleracea, Xanthium sibiricum, Ipomoea nil, Eschenbachia japonica, etc.) and major crop seeds (wheat, maize, paddy rice, soybean, cotton, oilseed rape, millet, sorghum, potato, sesame, castor plant, etc.) were placed in plastic pots filled with soil and then covered with 0.5-2 cm of soil to allow them to grow in a favorable greenhouse environment. Two weeks after sowing, the test plants were treated at the stage of 2-3 leaves. The test compounds of the present invention were individually dissolved with acetone, then added with Tween® 80, with 1.5 L/ha of methyl oleate emulsifiable concentrate as a synergist, diluted into solutions of certain concentrations using certain amount of water, and sprayed to the plants using a spray tower. After drug application, the experimental results on weeds were collected after 3 weeks of cultivation in a greenhouse. The compounds were applied at 500, 250, 125, 60, 15, and 7.5 g a.i./ha in triplicate, and the results were averaged.

Abutilon theophrasti = system: Abutilon theophrasti
Text: as §1, §2, §3

Amaranthus retroflexus = system: Amaranthus retroflexus
Text: as §1, §2, §3

Digitaria sanguinalis = system: Digitaria sanguinalis
Text: as §1, §2, §3

Setaria viridis = system: Setaria viridis
Text: as §1, §2, §3

Veronica polita = system: Veronica polita
Text: as §1, §2, §3

CC1(C(=O)OC2CCCC2)CC(c2cc(-c3ncc(C(F)(F)F)cc3Cl)c(F)cc2Cl)=NO1 (stereo not drawn) [Compound 43]
10: activity level (growth control rate) Echinochloa crus-galli (Echinochloa crus-galli; 15 g a.i./ha) | activity level (growth control rate) Abutilon theophrasti (Abutilon theophrasti; 15 g a.i./ha) | activity level (growth control rate) Amaranthus retroflexus (Amaranthus retroflexus; 15 g a.i./ha) | activity level (growth control rate) Digitaria sanguinalis (Digitaria sanguinalis; 15 g a.i./ha) | activity level (growth control rate) Setaria viridis (Setaria viridis; 15 g a.i./ha) | activity level (growth control rate) Veronica polita (Veronica polita; 15 g a.i./ha)

CC1(C(=O)OCCF)CC(c2cc(-c3ncc(C(F)(F)F)cc3Cl)c(F)cc2Cl)=NO1 (stereo not drawn) [Compound 44]
10: activity level (growth control rate) Echinochloa crus-galli (Echinochloa crus-galli; 15 g a.i./ha) | activity level (growth control rate) Abutilon theophrasti (Abutilon theophrasti; 15 g a.i./ha) | activity level (growth control rate) Amaranthus retroflexus (Amaranthus retroflexus; 15 g a.i./ha) | activity level (growth control rate) Digitaria sanguinalis (Digitaria sanguinalis; 15 g a.i./ha) | activity level (growth control rate) Setaria viridis (Setaria viridis; 15 g a.i./ha) | activity level (growth control rate) Veronica polita (Veronica polita; 15 g a.i./ha)

CC1(C(=O)OCC(F)(F)F)CC(c2cc(-c3ncc(C(F)(F)F)cc3Cl)c(F)cc2Cl)=NO1 (stereo not drawn) [Compound 45]
10: activity level (growth control rate) Echinochloa crus-galli (Echinochloa crus-galli; 60 g a.i./ha) | activity level (growth control rate) Abutilon theophrasti (Abutilon theophrasti; 60 g a.i./ha) | activity level (growth control rate) Amaranthus retroflexus (Amaranthus retroflexus; 60 g a.i./ha) | activity level (growth control rate) Digitaria sanguinalis (Digitaria sanguinalis; 60 g a.i./ha) | activity level (growth control rate) Setaria viridis (Setaria viridis; 60 g a.i./ha) | activity level (growth control rate) Veronica polita (Veronica polita; 60 g a.i./ha)

COCOC(=O)C1(C)CC(c2cc(-c3ncc(C(F)(F)F)cc3Cl)c(F)cc2Cl)=NO1 (stereo not drawn) [Compound 49]
10: activity level (growth control rate) Echinochloa crus-galli (Echinochloa crus-galli; 15 g a.i./ha) | activity level (growth control rate) Abutilon theophrasti (Abutilon theophrasti; 15 g a.i./ha) | activity level (growth control rate) Amaranthus retroflexus (Amaranthus retroflexus; 15 g a.i./ha) | activity level (growth control rate) Digitaria sanguinalis (Digitaria sanguinalis; 15 g a.i./ha) | activity level (growth control rate) Setaria viridis (Setaria viridis; 15 g a.i./ha) | activity level (growth control rate) Veronica polita (Veronica polita; 15 g a.i./ha)

CSCOC(=O)C1(C)CC(c2cc(-c3ncc(C(F)(F)F)cc3Cl)c(F)cc2Cl)=NO1 (stereo not drawn) [Compound 50]
10: activity level (growth control rate) Echinochloa crus-galli (Echinochloa crus-galli; 15 g a.i./ha) | activity level (growth control rate) Abutilon theophrasti (Abutilon theophrasti; 15 g a.i./ha) | activity level (growth control rate) Amaranthus retroflexus (Amaranthus retroflexus; 15 g a.i./ha) | activity level (growth control rate) Digitaria sanguinalis (Digitaria sanguinalis; 15 g a.i./ha) | activity level (growth control rate) Setaria viridis (Setaria viridis; 15 g a.i./ha) | activity level (growth control rate) Veronica polita (Veronica polita; 15 g a.i./ha)

CC(C#N)OC(=O)C1(C)CC(c2cc(-c3ncc(C(F)(F)F)cc3Cl)c(F)cc2Cl)=NO1 (stereo not drawn) [Compound 51]
10: activity level (growth control rate) Echinochloa crus-galli (Echinochloa crus-galli; 15 g a.i./ha) | activity level (growth control rate) Abutilon theophrasti (Abutilon theophrasti; 15 g a.i./ha) | activity level (growth control rate) Amaranthus retroflexus (Amaranthus retroflexus; 15 g a.i./ha) | activity level (growth control rate) Digitaria sanguinalis (Digitaria sanguinalis; 15 g a.i./ha) | activity level (growth control rate) Setaria viridis (Setaria viridis; 15 g a.i./ha) | activity level (growth control rate) Veronica polita (Veronica polita; 15 g a.i./ha)

CC(C)=NOC(=O)C1(C)CC(c2cc(-c3ncc(C(F)(F)F)cc3Cl)c(F)cc2Cl)=NO1 (stereo not drawn) [Compound 65]
10: activity level (growth control rate) Echinochloa crus-galli (Echinochloa crus-galli; 15 g a.i./ha) | activity level (growth control rate) Abutilon theophrasti (Abutilon theophrasti; 15 g a.i./ha) | activity level (growth control rate) Amaranthus retroflexus (Amaranthus retroflexus; 15 g a.i./ha) | activity level (growth control rate) Digitaria sanguinalis (Digitaria sanguinalis; 15 g a.i./ha) | activity level (growth control rate) Setaria viridis (Setaria viridis; 15 g a.i./ha) | activity level (growth control rate) Veronica polita (Veronica polita; 15 g a.i./ha)

C/C(=N\OC(=O)C1(C)CC(c2cc(-c3ncc(C(F)(F)F)cc3Cl)c(F)cc2Cl)=NO1)C(F)(F)F (stereo not drawn) [Compound 67]
10: activity level (growth control rate) Echinochloa crus-galli (Echinochloa crus-galli; 60 g a.i./ha) | activity level (growth control rate) Abutilon theophrasti (Abutilon theophrasti; 60 g a.i./ha) | activity level (growth control rate) Amaranthus retroflexus (Amaranthus retroflexus; 60 g a.i./ha) | activity level (growth control rate) Digitaria sanguinalis (Digitaria sanguinalis; 60 g a.i./ha) | activity level (growth control rate) Setaria viridis (Setaria viridis; 60 g a.i./ha) | activity level (growth control rate) Veronica polita (Veronica polita; 60 g a.i./ha)

COC/C(C)=N/OC(=O)C1(C)CC(c2cc(-c3ncc(C(F)(F)F)cc3Cl)c(F)cc2Cl)=NO1 (stereo not drawn) [Compound 68]
10: activity level (growth control rate) Echinochloa crus-galli (Echinochloa crus-galli; 60 g a.i./ha) | activity level (growth control rate) Abutilon theophrasti (Abutilon theophrasti; 60 g a.i./ha) | activity level (growth control rate) Amaranthus retroflexus (Amaranthus retroflexus; 60 g a.i./ha) | activity level (growth control rate) Digitaria sanguinalis (Digitaria sanguinalis; 60 g a.i./ha) | activity level (growth control rate) Setaria viridis (Setaria viridis; 60 g a.i./ha) | activity level (growth control rate) Veronica polita (Veronica polita; 60 g a.i./ha)

CCO/C(C)=N/OC(=O)C1(C)CC(c2cc(-c3ncc(C(F)(F)F)cc3Cl)c(F)cc2Cl)=NO1 (stereo not drawn) [Compound 69]
10: activity level (growth control rate) Echinochloa crus-galli (Echinochloa crus-galli; 60 g a.i./ha) | activity level (growth control rate) Abutilon theophrasti (Abutilon theophrasti; 60 g a.i./ha) | activity level (growth control rate) Amaranthus retroflexus (Amaranthus retroflexus; 60 g a.i./ha) | activity level (growth control rate) Digitaria sanguinalis (Digitaria sanguinalis; 60 g a.i./ha) | activity level (growth control rate) Setaria viridis (Setaria viridis; 60 g a.i./ha) | activity level (growth control rate) Veronica polita (Veronica polita; 60 g a.i./ha)

CCOC(=O)/C(C)=N/OC(=O)C1(C)CC(c2cc(-c3ncc(C(F)(F)F)cc3Cl)c(F)cc2Cl)=NO1 (stereo not drawn) [Compound 70]
10: activity level (growth control rate) Echinochloa crus-galli (Echinochloa crus-galli; 60 g a.i./ha) | activity level (growth control rate) Abutilon theophrasti (Abutilon theophrasti; 60 g a.i./ha) | activity level (growth control rate) Amaranthus retroflexus (Amaranthus retroflexus; 60 g a.i./ha) | activity level (growth control rate) Digitaria sanguinalis (Digitaria sanguinalis; 60 g a.i./ha) | activity level (growth control rate) Setaria viridis (Setaria viridis; 60 g a.i./ha) | activity level (growth control rate) Veronica polita (Veronica polita; 60 g a.i./ha)

CC1(C(=O)ON=C(c2ccccc2)c2ccccc2)CC(c2cc(-c3ncc(C(F)(F)F)cc3Cl)c(F)cc2Cl)=NO1 (stereo not drawn) [Compound 71]
10: activity level (growth control rate) Echinochloa crus-galli (Echinochloa crus-galli; 60 g a.i./ha) | activity level (growth control rate) Abutilon theophrasti (Abutilon theophrasti; 60 g a.i./ha) | activity level (growth control rate) Amaranthus retroflexus (Amaranthus retroflexus; 60 g a.i./ha) | activity level (growth control rate) Digitaria sanguinalis (Digitaria sanguinalis; 60 g a.i./ha) | activity level (growth control rate) Setaria viridis (Setaria viridis; 60 g a.i./ha) | activity level (growth control rate) Veronica polita (Veronica polita; 60 g a.i./ha)

CC1(C(=O)O/N=C/c2ccco2)CC(c2cc(-c3ncc(C(F)(F)F)cc3Cl)c(F)cc2Cl)=NO1 (stereo not drawn) [Compound 72]
10: activity level (growth control rate) Echinochloa crus-galli (Echinochloa crus-galli; 60 g a.i./ha) | activity level (growth control rate) Abutilon theophrasti (Abutilon theophrasti; 60 g a.i./ha) | activity level (growth control rate) Amaranthus retroflexus (Amaranthus retroflexus; 60 g a.i./ha) | activity level (growth control rate) Digitaria sanguinalis (Digitaria sanguinalis; 60 g a.i./ha) | activity level (growth control rate) Setaria viridis (Setaria viridis; 60 g a.i./ha) | activity level (growth control rate) Veronica polita (Veronica polita; 60 g a.i./ha)
